From ChEMBL document CHEMBL3112540, “Synthesis of halogenated 4-quinolones and evaluation of their antiplasmodial activity” (Bioorg Med Chem Lett, 2014) come the findings set out here.

For one series, the system named is Aspergillus flavus. Nature of the series: Antimicrobial activity against Aspergillus flavus. The format is functional, organism-based.
The next series deals with Candida albicans. The experiment in a line: Antimicrobial activity against Candida albicans. It counts as functional, organism-based.
The test system of another series is Escherichia coli. The experiment in a line: Antimicrobial activity against Escherichia coli. It counts as functional, organism-based.
The test system of a further series is Staphylococcus aureus. The experiment in a line: Antimicrobial activity against Staphylococcus aureus. It counts as functional, organism-based.
The subject of series [1] is Plasmodium falciparum. Nature of the series: Antiplasmodial activity chloroquine-sensitive Plasmodium falciparum NF54 by lactate dehydrogenase assay. The format is functional, organism-based.
Series [2] relates to Plasmodium falciparum. The experiment in a line: Antiplasmodial activity chloroquine-resistant Plasmodium falciparum Dd2 by lactate dehydrogenase assay. It counts as functional, organism-based.
For the next series, the system named is CHO. Nature of the series: Cytotoxicity against CHO cells by MTT assay. It counts as cell-based. The note with it: Cricetulus griseus. On the technique in general: Tetrazolium assays rely on reduction of a dye to a coloured formazan, in cell work by metabolically active cells.
The nature of the next series: in vitro. The note with it: hamster.

Active and inactive are the calls of the source. The rule behind the calls is not given here.

Description for in vitro: Selectivity index, ratio of IC50 for CHO cells to IC50 for chloroquine-sensitive Plasmodium falciparum NF54

Usually IC50 stands for the concentration needed to halve the response being measured. Read a low IC50 as greater potency. Turning to `CC(Br)(CBr)Cn1cc(Br)c(=O)c2ccccc21` (stereo unspecified), the outcome with Aspergillus flavus, with Candida albicans, in the series on Escherichia coli and with Staphylococcus aureus was inactive. Further, the IC50 in the series on Plasmodium falciparum [1] came to 35.2 µM.

As for `C[C@H]1[C@H](OC(=O)CCC(=O)O)O[C@@H]2O[C@@]3(C)CC[C@H]4[C@H](C)CC[C@@H]1[C@@]24OO3` [ARTESUNATE], the half-maximal inhibitory concentration (IC50) in the series on Plasmodium falciparum [2] was found to be 0.046 µM; with Plasmodium falciparum [1] it was 0.005 µM.

With `CC(Br)(CBr)Cn1cc(Br)c(=O)c2ccc(Cl)cc21` (stereo unspecified), the outcome in the series with Aspergillus flavus, in the series on Candida albicans, in the series on Escherichia coli and with Staphylococcus aureus was inactive. Also, the IC50 in the series with Plasmodium falciparum [2] was determined as 4.02 µM; with Plasmodium falciparum [1] it was 3.18 µM; in the series on CHO, 31.8 µM. For the same molecule, in “in vitro”, the selectivity ratio is 10.

`CC[C@H]1CN2CCc3cc(OC)c(OC)cc3[C@@H]2C[C@@H]1C[C@H]1NCCc2cc(OC)c(OC)cc21` [EMETINE] registered an IC50 with CHO of 0.092 µM.
